Laboratory results published in US11358933B2, “Compounds and methods for inhibiting CYP26 enzymes” (Queen's University at Kingston, priority 2017, dated 2022).

Tested on: primary human bone marrow stromal cells
Assay: RA metabolism by primary human bone marrow stromal cells
Type: cell-based
Settings: pre-treated with DMSO or 1 μM RA 24 hours; 1 μM compound (FIG. 5)
Description: These experiments are to assess the ability of primary cells, or cell lines to metabolize RA, and to determine the effect of inhibition of CYP26A1 or CYP26B1 on this ability. For these experiments, cells are plated into 48-well plates and treated with a radiolabeled (^3H) RA. The extent of conversion of this labeled RA to water soluble metabolites is determined as above for in the cell-based inhibitor assay. Primary human bone marrow stromal cells (available from Lonza) were cultured in MyeloCult (available from Stem Cell Technologies, Vancouver, Canada). Mouse OP9 bone marrow stromal cells and MC3T3 pre-osteoblasts were cultured as above. Cells are plated in the appropriate culture medium and allowed to form a monolayer. Cells are then pre-treated with either DMSO (vehicle control) or RA (1 μM) for 24 hours to induce CYP26 expression. Vehicle, and RA induced cells are then exposed to ^3H-RA in the presence or absence of test CYP26 inhibitor to examine the effects on RA metabolism. Cells are incubated for 3 hours with labeled RA, and metabolites extracted and analyzed as above.

CC(C)(C)c1cccc(-c2cc3cc(/C=C/C(=O)O)ccc3[nH]2)c1 [Compound 026] was tested, and the “RA metabolism, basal and RA-induced” value was “efficiently blocked both basal and RA-induced RA metabolism”.
